According to the supplement of paper PMC10307832:

Experiments:
Assay in all cases: relative viability (nuclei count vs DMSO), 5 days (fraction); higher = more cells survive
AZD8055 + Tozasertib = compound: COc1ccc(-c2ccc3c(N4CCOC[C@@H]4C)nc(N4CCOC[C@@H]4C)nc3n2)cc1CO [AZD8055] + Cc1cc(Nc2cc(N3CCN(C)CC3)nc(Sc3ccc(NC(=O)C4CC4)cc3)n2)n[nH]1 [Tozasertib] (partner 0.1 µM)
How it was run: (§1)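 After 5 days of treatment, lung cancer cells in 1536-well plates were fixed and stained in a single step (final 0.05% Triton X-100, 1% formaldehyde, 1 ug/ml Hoechst) and their nuclei counted on 4× images. Treatment had been applied by pin tool the day after seeding as one drug alone or as a fixed anchor-drug dose with five library-drug doses (not always all listed) in √10 steps. Relative viability is the nuclei count of treated wells divided by that of vehicle wells, and values are medians of duplicate plates.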

AZD8055 + Dasatinib = compound: COc1ccc(-c2ccc3c(N4CCOC[C@@H]4C)nc(N4CCOC[C@@H]4C)nc3n2)cc1CO [AZD8055] + Cc1nc(Nc2ncc(C(=O)Nc3c(C)cccc3Cl)s2)cc(N2CCN(CCO)CC2)n1 [Dasatinib] (partner 0.075 µM)
How it was run: as §1

AZD8055 + Foretinib = compound: COc1ccc(-c2ccc3c(N4CCOC[C@@H]4C)nc(N4CCOC[C@@H]4C)nc3n2)cc1CO [AZD8055] + COc1cc2c(Oc3ccc(NC(=O)C4(C(=O)Nc5ccc(F)cc5)CC4)cc3F)ccnc2cc1OCCCN1CCOCC1 [Foretinib] (partner 0.25 µM)
How it was run: as §1

AZD8055 + Phenformin = compound: COc1ccc(-c2ccc3c(N4CCOC[C@@H]4C)nc(N4CCOC[C@@H]4C)nc3n2)cc1CO [AZD8055] + N=C(N)NC(=N)NCCc1ccccc1 [Phenformin] (partner 250 µM)
How it was run: as §1

AZD8055 + OSI-027 = compound: COc1ccc(-c2ccc3c(N4CCOC[C@@H]4C)nc(N4CCOC[C@@H]4C)nc3n2)cc1CO [AZD8055] + COc1cccc2cc(-c3nc([C@H]4CC[C@H](C(=O)O)CC4)n4ncnc(N)c34)[nH]c12 [OSI-027] (partner 0.5 µM)
How it was run: as §1

AZD8055 + Luminespib = compound: COc1ccc(-c2ccc3c(N4CCOC[C@@H]4C)nc(N4CCOC[C@@H]4C)nc3n2)cc1CO [AZD8055] + CCNC(=O)c1noc(-c2cc(C(C)C)c(O)cc2O)c1-c1ccc(CN2CCOCC2)cc1 [Luminespib] (partner 0.01 µM)
How it was run: as §1

AZD8055 = compound: COc1ccc(-c2ccc3c(N4CCOC[C@@H]4C)nc(N4CCOC[C@@H]4C)nc3n2)cc1CO [AZD8055]
How it was run: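 Lung cancer cell lines in 1536-well plates were kept overnight at 37 °C, then pinned with five library-drug doses (not always all listed) spaced by √10 on vehicle-anchored plates. After 5 days without medium change, cells were fixed, permeabilised and Hoechst-stained in one step, imaged at 4×, and nuclei were counted with MetaXpress. Viability is treated-well nuclei divided by vehicle-well nuclei, taken as the median over plates. Plates passed only with control CV below 25% and at least one doubling.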

## NCI-H1623
AZD8055 + Tozasertib; first compound 0.01 µM
  relative viability: 0.46
AZD8055 + Tozasertib; first compound 0.03162 µM
  relative viability: 0.47
AZD8055 + Tozasertib; first compound 0.1 µM
  relative viability: 0.397
AZD8055 + Tozasertib; first compound 0.3162 µM
  relative viability: 0.254
AZD8055 + Tozasertib; first compound 1 µM
  relative viability: 0.288
AZD8055 + Dasatinib; first compound 0.01 µM
  relative viability: 0.545
AZD8055 + Dasatinib; first compound 0.03162 µM
  relative viability: 0.584
AZD8055 + Dasatinib; first compound 0.1 µM
  relative viability: 0.412
AZD8055 + Dasatinib; first compound 0.3162 µM
  relative viability: 0.29
AZD8055 + Dasatinib; first compound 1 µM
  relative viability: 0.234
AZD8055 + Foretinib; first compound 0.01 µM
  relative viability: 0.885
AZD8055 + Foretinib; first compound 0.03162 µM
  relative viability: 1.03
AZD8055 + Foretinib; first compound 0.1 µM
  relative viability: 0.578
AZD8055 + Foretinib; first compound 0.3162 µM
  relative viability: 0.438
AZD8055 + Foretinib; first compound 1 µM
  relative viability: 0.381
AZD8055 + Phenformin; first compound 0.01 µM
  relative viability: 0.586
AZD8055 + Phenformin; first compound 0.03162 µM
  relative viability: 0.597
AZD8055 + Phenformin; first compound 0.1 µM
  relative viability: 0.521
AZD8055 + Phenformin; first compound 0.3162 µM
  relative viability: 0.324
AZD8055 + Phenformin; first compound 1 µM
  relative viability: 0.316
AZD8055 + OSI-027; first compound 0.01 µM
  relative viability: 0.419
AZD8055 + OSI-027; first compound 0.03162 µM
  relative viability: 0.521
AZD8055 + OSI-027; first compound 0.1 µM
  relative viability: 0.425
AZD8055 + OSI-027; first compound 0.3162 µM
  relative viability: 0.411
AZD8055 + OSI-027; first compound 1 µM
  relative viability: 0.379
AZD8055 + Luminespib; first compound 0.01 µM
  relative viability: 0.483
AZD8055 + Luminespib; first compound 0.03162 µM
  relative viability: 0.434
AZD8055 + Luminespib; first compound 0.1 µM
  relative viability: 0.343
AZD8055 + Luminespib; first compound 0.3162 µM
  relative viability: 0.347
AZD8055 + Luminespib; first compound 1 µM
  relative viability: 0.278
AZD8055; 0.01 µM
  relative viability: 0.916
AZD8055; 0.03162 µM
  relative viability: 1.03
AZD8055; 0.1 µM
  relative viability: 0.79
AZD8055; 0.3162 µM
  relative viability: 0.469
AZD8055; 1 µM
  relative viability: 0.36
